Experimental data: PubChem BioAssay (NCI)
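Compound exposure: 48 hours, 5 concentrations, 96-well plates. TGI marks complete inhibition of growth.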

What was measured:
Assay in all cases: NCI-60 cell line screen, 48 h
PC-3 prostate = tested on: PC-3 prostate
KM12 colon = tested on: KM12 colon
NCI/ADR-RES ovarian = tested on: NCI/ADR-RES ovarian
OVCAR-5 ovarian = tested on: OVCAR-5 ovarian
COLO 205 colon = tested on: COLO 205 colon
HCT-15 colon = tested on: HCT-15 colon
CAKI-1 renal = tested on: CAKI-1 renal
LOX IMVI melanoma = tested on: LOX IMVI melanoma
SF-295 CNS = tested on: SF-295 CNS
SR leukemia = tested on: SR leukemia
HOP-92 NSCLC = tested on: HOP-92 NSCLC
NCI-H226 lung = tested on: NCI-H226 lung
M14 melanoma = tested on: M14 melanoma
MCF7 breast = tested on: MCF7 breast
SF-539 CNS = tested on: SF-539 CNS
OVCAR-3 ovarian = tested on: OVCAR-3 ovarian
HT29 colon = tested on: HT29 colon
HOP-62 NSCLC = tested on: HOP-62 NSCLC
K-562 leukemia = tested on: K-562 leukemia
U251 CNS = tested on: U251 CNS
TK-10 renal = tested on: TK-10 renal
SK-MEL-28 melanoma = tested on: SK-MEL-28 melanoma
HCC-2998 colon = tested on: HCC-2998 colon
786-0 renal = tested on: 786-0 renal
OVCAR-8 ovarian = tested on: OVCAR-8 ovarian
IGROV1 ovarian = tested on: IGROV1 ovarian
CCRF-CEM leukemia = tested on: CCRF-CEM leukemia
A549 NSCLC = tested on: A549 NSCLC
UACC-62 melanoma = tested on: UACC-62 melanoma
UO-31 renal = tested on: UO-31 renal
MDA-N = tested on: MDA-N
T-47D breast = tested on: T-47D breast
OVCAR-4 ovarian = tested on: OVCAR-4 ovarian
NCI-H23 lung = tested on: NCI-H23 lung
UACC-257 melanoma = tested on: UACC-257 melanoma
HCT-116 colon = tested on: HCT-116 colon
SK-MEL-2 melanoma = tested on: SK-MEL-2 melanoma
DU-145 prostate = tested on: DU-145 prostate
SK-MEL-5 melanoma = tested on: SK-MEL-5 melanoma
HL-60(TB) leukemia = tested on: HL-60(TB) leukemia
SN12C renal = tested on: SN12C renal
MOLT-4 leukemia = tested on: MOLT-4 leukemia
MDA-MB-231 breast = tested on: MDA-MB-231 breast
ACHN renal = tested on: ACHN renal
NCI-H522 lung = tested on: NCI-H522 lung
MDA-MB-435 = tested on: MDA-MB-435
SK-OV-3 ovarian = tested on: SK-OV-3 ovarian
RPMI-8226 leukemia = tested on: RPMI-8226 leukemia
SNB-19 CNS = tested on: SNB-19 CNS
EKVX NSCLC = tested on: EKVX NSCLC
SW-620 colon = tested on: SW-620 colon
A498 renal = tested on: A498 renal
BT-549 breast = tested on: BT-549 breast
SF-268 CNS = tested on: SF-268 CNS
HS 578T breast = tested on: HS 578T breast
MALME-3M melanoma = tested on: MALME-3M melanoma
NCI-H460 lung = tested on: NCI-H460 lung
SNB-75 CNS = tested on: SNB-75 CNS
RXF 393 renal = tested on: RXF 393 renal

SMILES: O=CNCCCN1CCN(CCCNC=O)CC1
- TGI (PC-3 prostate): > 100 µM
- TGI (KM12 colon): > 100 µM
- TGI (NCI/ADR-RES ovarian): > 100 µM
- TGI (OVCAR-5 ovarian): > 100 µM
- TGI (COLO 205 colon): > 100 µM
- TGI (HCT-15 colon): > 100 µM
- TGI (CAKI-1 renal): > 100 µM
- TGI (LOX IMVI melanoma): > 100 µM
- TGI (SF-295 CNS): > 100 µM
- TGI (SR leukemia): > 100 µM
- TGI (HOP-92 NSCLC): > 100 µM
- TGI (NCI-H226 lung): > 100 µM
- TGI (M14 melanoma): > 100 µM
- TGI (MCF7 breast): > 100 µM
- TGI (SF-539 CNS): > 100 µM
- TGI (OVCAR-3 ovarian): > 100 µM
- TGI (HT29 colon): > 100 µM
- TGI (HOP-62 NSCLC): > 100 µM
- TGI (K-562 leukemia): > 100 µM
- TGI (U251 CNS): > 100 µM
- TGI (TK-10 renal): > 100 µM
- TGI (SK-MEL-28 melanoma): > 100 µM
- TGI (HCC-2998 colon): > 100 µM
- TGI (786-0 renal): > 100 µM
- TGI (OVCAR-8 ovarian): > 100 µM
- TGI (IGROV1 ovarian): > 100 µM
- TGI (CCRF-CEM leukemia): > 100 µM
- TGI (A549 NSCLC): > 100 µM
- TGI (UACC-62 melanoma): > 100 µM
- TGI (UO-31 renal): > 100 µM
- TGI (MDA-N): > 100 µM
- TGI (T-47D breast): > 100 µM
- TGI (OVCAR-4 ovarian): > 100 µM
- TGI (NCI-H23 lung): > 100 µM
- TGI (UACC-257 melanoma): > 100 µM
- TGI (HCT-116 colon): > 100 µM
- TGI (SK-MEL-2 melanoma): > 100 µM
- TGI (DU-145 prostate): > 100 µM
- TGI (SK-MEL-5 melanoma): > 100 µM
- TGI (HL-60(TB) leukemia): > 100 µM
- TGI (SN12C renal): > 100 µM
- TGI (MOLT-4 leukemia): > 100 µM
- TGI (MDA-MB-231 breast): > 100 µM
- TGI (ACHN renal): > 100 µM
- TGI (NCI-H522 lung): 4.07 µM
- TGI (MDA-MB-435): > 100 µM
- TGI (SK-OV-3 ovarian): > 100 µM
- TGI (RPMI-8226 leukemia): > 100 µM
- TGI (SNB-19 CNS): > 100 µM
- TGI (EKVX NSCLC): > 100 µM
- TGI (SW-620 colon): > 100 µM
- TGI (A498 renal): > 100 µM
- TGI (BT-549 breast): > 100 µM
- TGI (SF-268 CNS): 9.78 µM

SMILES: Cc1[nH]c2nccn2c(=O)c1CCCl
- TGI (PC-3 prostate): > 100 µM
- TGI (KM12 colon): 42.2 µM
- TGI (NCI/ADR-RES ovarian): 58.1 µM
- TGI (OVCAR-5 ovarian): > 100 µM
- TGI (COLO 205 colon): > 100 µM
- TGI (HCT-15 colon): > 100 µM
- TGI (HS 578T breast): > 100 µM
- TGI (LOX IMVI melanoma): 33.6 µM
- TGI (SF-295 CNS): > 100 µM
- TGI (MALME-3M melanoma): 41.3 µM
- TGI (NCI-H460 lung): 49.5 µM
- TGI (SR leukemia): 90.7 µM
- TGI (HOP-92 NSCLC): 66.1 µM
- TGI (NCI-H226 lung): > 100 µM
- TGI (M14 melanoma): > 100 µM
- TGI (MCF7 breast): > 100 µM
- TGI (SF-539 CNS): 36.6 µM
- TGI (OVCAR-3 ovarian): 62.1 µM
- TGI (HT29 colon): > 100 µM
- TGI (HOP-62 NSCLC): 60 µM
- TGI (K-562 leukemia): 93.5 µM
- TGI (U251 CNS): 43.8 µM
- TGI (TK-10 renal): 96.7 µM
- TGI (SK-MEL-28 melanoma): > 100 µM
- TGI (HCC-2998 colon): 34.1 µM
- TGI (786-0 renal): 64.6 µM
- TGI (OVCAR-8 ovarian): 87.6 µM
- TGI (IGROV1 ovarian): 61.8 µM
- TGI (CCRF-CEM leukemia): 85.4 µM
- TGI (A549 NSCLC): > 100 µM
- TGI (UACC-62 melanoma): 53.7 µM
- TGI (UO-31 renal): 91.4 µM
- TGI (MDA-N): 46.6 µM
- TGI (T-47D breast): > 100 µM
- TGI (OVCAR-4 ovarian): 40 µM
- TGI (NCI-H23 lung): 41.6 µM
- TGI (UACC-257 melanoma): > 100 µM
- TGI (HCT-116 colon): 32.3 µM
- TGI (DU-145 prostate): 66.7 µM
- TGI (SK-MEL-5 melanoma): 31.3 µM
- TGI (HL-60(TB) leukemia): 57.2 µM
- TGI (SN12C renal): 45.4 µM
- TGI (MOLT-4 leukemia): 52.9 µM
- TGI (MDA-MB-231 breast): > 100 µM
- TGI (ACHN renal): 55 µM
- TGI (SNB-75 CNS): > 100 µM
- TGI (NCI-H522 lung): 49.9 µM
- TGI (SK-OV-3 ovarian): 63 µM
- TGI (RXF 393 renal): 38.9 µM
- TGI (RPMI-8226 leukemia): 62.9 µM
- TGI (SNB-19 CNS): > 100 µM
- TGI (EKVX NSCLC): > 100 µM
- TGI (SW-620 colon): 50.8 µM
- TGI (A498 renal): 61.8 µM
- TGI (BT-549 breast): 62.5 µM
- TGI (SF-268 CNS): > 100 µM

SMILES: O=C(NNC(=O)c1ccccc1O)c1ccccc1O
- TGI (PC-3 prostate): > 100 µM
- TGI (KM12 colon): > 100 µM
- TGI (NCI/ADR-RES ovarian): > 100 µM
- TGI (OVCAR-5 ovarian): > 100 µM
- TGI (COLO 205 colon): > 38.9 µM
- TGI (HCT-15 colon): > 100 µM
- TGI (CAKI-1 renal): > 100 µM
- TGI (LOX IMVI melanoma): > 100 µM
- TGI (SF-295 CNS): > 100 µM
- TGI (MALME-3M melanoma): > 100 µM
- TGI (NCI-H460 lung): > 100 µM
- TGI (SR leukemia): > 31.1 µM
- TGI (HOP-92 NSCLC): > 100 µM
- TGI (NCI-H226 lung): > 100 µM
- TGI (M14 melanoma): 25.4 µM
- TGI (MCF7 breast): > 100 µM
- TGI (SF-539 CNS): 6.16 µM
- TGI (OVCAR-3 ovarian): > 100 µM
- TGI (HT29 colon): > 100 µM
- TGI (HOP-62 NSCLC): > 100 µM
- TGI (K-562 leukemia): > 100 µM
- TGI (U251 CNS): > 100 µM
- TGI (TK-10 renal): > 100 µM
- TGI (SK-MEL-28 melanoma): > 100 µM
- TGI (786-0 renal): > 100 µM
- TGI (OVCAR-8 ovarian): > 100 µM
- TGI (IGROV1 ovarian): > 34.8 µM
- TGI (CCRF-CEM leukemia): > 100 µM
- TGI (A549 NSCLC): > 100 µM
- TGI (UACC-62 melanoma): > 100 µM
- TGI (UO-31 renal): > 100 µM
- TGI (MDA-N): > 100 µM
- TGI (T-47D breast): > 78.4 µM
- TGI (NCI-H23 lung): > 100 µM
- TGI (HCT-116 colon): > 100 µM
- TGI (SK-MEL-2 melanoma): > 100 µM
- TGI (DU-145 prostate): > 100 µM
- TGI (SK-MEL-5 melanoma): > 34.5 µM
- TGI (HL-60(TB) leukemia): 0.944 µM
- TGI (SN12C renal): > 100 µM
- TGI (MOLT-4 leukemia): > 91.7 µM
- TGI (MDA-MB-231 breast): > 100 µM
- TGI (ACHN renal): > 100 µM
- TGI (NCI-H522 lung): 3.6 µM
- TGI (MDA-MB-435): > 100 µM
- TGI (SK-OV-3 ovarian): > 100 µM
- TGI (RPMI-8226 leukemia): > 100 µM
- TGI (SNB-19 CNS): > 100 µM
- TGI (EKVX NSCLC): > 100 µM
- TGI (SW-620 colon): > 100 µM
- TGI (A498 renal): > 100 µM
- TGI (BT-549 breast): > 100 µM
- TGI (SF-268 CNS): > 58.4 µM
